Experimental data taken from patent US20240409556A1, “BENZOPIPERAZINE AND RELATED ANALOGS FOR INHIBITING YAP/TAZ-TEAD” (Springworks Therapeutics, Inc., priority 2023, published 2024).

Test system: YAP/TAZ-TEAD transcription
Experiment: Reporter gene assay for measuring the inhibition of YAP/TAZ-TEAD transcription (TEAD-responsive element luciferase reporter in Hek293T cells)
Assay type: cell-based
Details: 24 hours incubation
Procedure: Example 56: Activity of Compounds of the Disclosure in a Reporter Gene Assay for Measuring the Inhibition of YAP/TAZ-TEAD Transcription
Hek293T cells were cultured in DMEM supplemented with 10% fetal bovine serum, Sodium pyruvate, Sodium bicarbonate, L-glutamine. The cells were harvested and transiently transfected with TEAD-responsive element luciferase reporter. Transfected cells were plated in 384-well plate containing pre-diluted compounds. After 24 hours incubation at 37° C./5% CO2, assay plates were cooled to room temperature and levelled to an equal volume per well, prior to the addition of 25 uL luciferase substrate SteadyLite (Perkin Elmer)/well. The plate was shaken for 10 min at 600 rpm, centrifuged for 1 min at 500 rpm and measured with an Envision reader (PerkinElmer). The amount of relative light units produced by the TEAD reporter was used to calculate the percentage of inhibition.
The percent of reporter inhibition was calculated in the presence of a positive control inhibitor (100% inhibition) versus a condition with the presence of the vehicle basal activity of the reporter (0% inhibition). The ability of a test compound to inhibit this activity was determined as: Percentage inhibition=[[…]((RLU determined in the presence of vehicle−RLU determined for sample with test compound present) divided by (RLU determined in the presence of vehicle−RLU determined for sample with positive control inhibitor))]*100.
The activities of example compounds tested are depicted in Table 3. The activity ranges A, B and C refer to IC50 values in the reporter gene assay as follows: “A”: IC50<1 μM; “B”: 1 μM≤IC50≤10 μM and “C”: IC50>10 μM; NT=not tested.

SMILES	IC50 [nM]	IC50 (Homo sapiens, HEK-293T, 24 h) [nM]
CC(=O)N1CCN2c3ccccc3N(c3ccc(C(F)(F)F)cc3)CC2C1 (single isomer, unassigned) [15-En1, (R)- or (S)-1-(6-(4-(trifluoromethyl)phenyl)-1,2,4,4a,5,6-hexahydro-3H-pyrazino[1,2-a]quinoxalin-3-yl)ethan-1-one]	1000 to 10000	
CC(=O)N1CCN2c3ncccc3N(c3ccc(C(F)(F)F)cc3)CC2C1 (single isomer, unassigned) [29-En2, (R)- or (S)-1-(5-(4-(trifluoromethyl)phenyl)-5,6,6a,7,9,10-hexahydro-8H-pyrazino[1,2-a]pyrido[3,2-e]pyrazin-8-yl)ethan-1-one]	< 1000	
CNS(=O)(=O)N1CCN2c3ccccc3N(c3ccc(C(F)(F)F)cc3)CC2C1 (single isomer, unassigned) [32-En1, (R)- or (S)-N-methyl-6-(4-(trifluoromethyl)phenyl)-1,2,4,4a,5,6-hexahydro-3H-pyrazino[1,2-a]quinoxaline-3-sulfonamide]	< 1000	
CC(=O)NCC1CN(c2ccc(C(F)(F)F)cc2)c2ccccc2N1 (single isomer, unassigned) [34-En1, (R)- or (S)-N-((4-(4-(trifluoromethyl)phenyl)-1,2,3,4-tetrahydroquinoxalin-2-yl)methyl)acetamide]	< 1000	
CC(=O)NCC1CN(c2ccc(C(F)(F)F)cc2)c2ccccc2O1 (single isomer, unassigned) [36-En2, (R)- or (S)-N-((4-(4-(trifluoromethyl)phenyl)-3,4-dihydro-2H-benzo[b][1,4]oxazin-2-yl)methyl)acetamide]	< 1000	
CC(=O)N1CCN2c3nccnc3N(c3ccc(C(F)(F)F)cc3)CC2C1 (single isomer, unassigned) [40-En2, (R)- or (S)-1-(5-(4-(trifluoromethyl)phenyl)-5,6,6a,7,9,10-hexahydro-8H-dipyrazino[1,2-a:2′,3′-e]pyrazin-8-yl)ethan-1-one]	1000 to 10000	
C=CC(=O)N1CCN2C(C1)CN(c1ccc(C(F)(F)F)cc1)C1CCC12 (single isomer, unassigned) [42(Dia1), 1-(3-(4-(trifluoromethyl)phenyl)decahydro-6H-cyclobuta[e]pyrazino[1,2-a]pyrazin-6-yl)prop-2-en-1-one]		< 1000
C=CC(=O)N1CCN2C(C1)CN(c1ccc(C(F)(F)F)cc1)C1CCC12 (single isomer, unassigned) [42(Dia2), 1-(3-(4-(trifluoromethyl)phenyl)decahydro-6H-cyclobuta[e]pyrazino[1,2-a]pyrazin-6-yl)prop-2-en-1-one]	< 1000	
CNS(=O)(=O)N1CCN2c3ncccc3N(c3ccc(C(F)(F)F)cc3)CC2C1 (single isomer, unassigned) [45-En1, (R)- or (S)-N-methyl-5-(4-(trifluoromethyl)phenyl)-5,6,6a,7,9,10-hexahydro-8H-pyrazino[1,2-a]pyrido[3,2-e]pyrazine-8-sulfonamide]	< 1000	
CC(C)C(=O)N1CCN2c3ncccc3N(c3ccc(C(F)(F)F)cc3)CC2C1 (single isomer, unassigned) [47-En2, (R)- or (S)-2-methyl-1-(5-(4-(trifluoromethyl)phenyl)-5,6,6a,7,9,10-hexahydro-8H-pyrazino[1,2-a]pyrido[3,2-e]pyrazin-8-yl)propan-1-one]	< 1000	
CC(=O)NCC1CN(c2ccc(C(F)(F)F)cc2)c2cccnc2O1 (single isomer, unassigned) [49-En2, (R)- or (S)-N-((1-(4-(trifluoromethyl)phenyl)-2,3-dihydro-1H-pyrido[2,3-b][1,4]oxazin-3-yl)methyl)acetamide]	1000 to 10000	
CNC(=O)N1CCN2c3ncccc3N(c3ccc(C(F)(F)F)cc3)CC2C1 (single isomer, unassigned) [52-En1, (R)- or (S)-N-methyl-5-(4-(trifluoromethyl)phenyl)-5,6,6a,7,9,10-hexahydro-8H-pyrazino[1,2-a]pyrido[3,2-e]pyrazine-8-carboxamide]	< 1000	
COc1ccc2c(n1)OC(CNC(C)=O)CN2c1ccc(C(F)(F)F)cc1 (single isomer, unassigned) [73-En1, (R)- or (S)-N-((6-methoxy-1-(4-(trifluoromethyl)phenyl)-2,3-dihydro-1H-pyrido[2,3-b][1,4]oxazin-3-yl)methyl)acetamide]	> 10000	
COc1ccc2c(n1)OC(CNC(C)=O)CN2c1ccc(C(F)(F)F)cc1 (single isomer, unassigned) [73-En2, (R)- or (S)-N-((6-methoxy-1-(4-(trifluoromethyl)phenyl)-2,3-dihydro-1H-pyrido[2,3-b][1,4]oxazin-3-yl)methyl)acetamide]	< 1000	
CC(=O)NCC1CN(c2ccc(C(F)(F)F)cc2)c2cc(Cl)cnc2O1 (single isomer, unassigned) [75-En1, (R)- or (S)-N-((7-chloro-1-(4-(trifluoromethyl)phenyl)-2,3-dihydro-1H-pyrido[2,3-b][1,4]oxazin-3-yl)methyl)acetamide]	> 10000	
CC(=O)NCC1CN(c2ccc(C(F)(F)F)cc2)c2ccc(C)nc2O1 (single isomer, unassigned) [77-En2, (R)- or (S)-N-((6-methyl-1-(4-(trifluoromethyl)phenyl)-2,3-dihydro-1H-pyrido[2,3-b][1,4]oxazin-3-yl)methyl)acetamide]	< 1000	
CC(=O)N1CC(=O)N2c3ccccc3N(c3ccc(C(F)(F)F)cc3)CC2C1 (single isomer, unassigned) [79-En1, (R)- or (S)-3-acetyl-6-(4-(trifluoromethyl)phenyl)-2,3,4,4a,5,6-hexahydro-1H-pyrazino[1,2-a]quinoxalin-1-one]	> 10000	
CC(=O)N1CC(=O)N2c3ccccc3N(c3ccc(C(F)(F)F)cc3)CC2C1 (single isomer, unassigned) [79-En2, (R)- or (S)-3-acetyl-6-(4-(trifluoromethyl)phenyl)-2,3,4,4a,5,6-hexahydro-1H-pyrazino[1,2-a]quinoxalin-1-one]	< 1000	
CC(=O)NCC1CN(c2ccc(C(F)(F)F)cc2)c2ccc(C3CC3)nc2O1 (single isomer, unassigned) [81-En2, (R)- or (S)-N-((6-cyclopropyl-1-(4-(trifluoromethyl)phenyl)-2,3-dihydro-1H-pyrido[2,3-b][1,4]oxazin-3-yl)methyl)acetamide]	< 1000	
CC(=O)NCC1CN(c2ccc(C(F)(F)F)cc2)c2ccc(N(C)C)nc2O1 (single isomer, unassigned) [87-En2, (R)- or (S)-N-((6-(dimethylamino)-1-(4-(trifluoromethyl)phenyl)-2,3-dihydro-1H-pyrido[2,3-b][1,4]oxazin-3-yl)methyl)acetamide]	< 1000	
O=C(O)C1CCN2c3ncccc3N(c3ccc(C(F)(F)F)cc3)CC2C1 (single isomer, unassigned) [96A, (cis)- or (trans)-5-(4-(trifluoromethyl)phenyl)-6,6a,7,8,9,10-hexahydro-5H-dipyrido[1,2-a:3′,2′-e]pyrazine-8-carboxylic acid]		< 1000
CC(=O)NCC1CN(c2ccc(C(F)(F)F)cc2)c2ccc(C#N)nc2O1 (single isomer, unassigned) [99-En1 or 99-En2, (R)- or (S)—N-((6-cyano-1-(4-(trifluoromethyl)phenyl)-2,3-dihydro-1H-pyrido[2,3-b][1,4]oxazin-3-yl)methyl)acetamide]		1000 to 10000
FC(F)(F)c1ccc(N2CC3CC(c4nnn[nH]4)CCN3c3ccccc32)cc1 (single isomer, unassigned) [121-D2, 8-(1H-tetrazol-5-yl)-5-(4-(trifluoromethyl)phenyl)-6,6a,7,8,9,10-hexahydro-5H-pyrido[1,2-a]quinoxaline]	< 1000	
FC(F)(F)c1ccc(N2CC3CC(c4nnn[nH]4)CCN3c3ccccc32)cc1 (single isomer, unassigned) [121-D3, 8-(1H-tetrazol-5-yl)-5-(4-(trifluoromethyl)phenyl)-6,6a,7,8,9,10-hexahydro-5H-pyrido[1,2-a]quinoxaline]	1000 to 10000	
FC(F)(F)c1ccc(N2CC3CC(c4nnn[nH]4)CCN3c3ccccc32)cc1 (single isomer, unassigned) [121-D4, 8-(1H-tetrazol-5-yl)-5-(4-(trifluoromethyl)phenyl)-6,6a,7,8,9,10-hexahydro-5H-pyrido[1,2-a]quinoxaline]	< 1000	
CC(=O)NCC1CN(c2ccc(C(F)(F)F)cc2)c2ccc(Br)nc2O1 (single isomer, unassigned) [compound 122, (R)- or (S)—N-((6-bromo-1-(4-(trifluoromethyl)phenyl)-2,3-dihydro-1H-pyrido[2,3-b][1,4]oxazin-3-yl)methyl)acetamide]		< 1000
C=CC(=O)N1CCN2c3ncccc3N(c3ccc(C(F)(F)F)cc3)CC2C1 (stereo not shown) [28-En1, 1-(5-(4-(trifluoromethyl)phenyl)-5,6,6a,7,9,10-hexahydro-8H-pyrazino[1,2-a]pyrido[3,2-e]pyrazin-8-yl)prop-2-en-1-one]		< 1000
C=CC(=O)N1CCN2c3ncccc3N(c3ccc(C(F)(F)F)cc3)CC2C1 (stereo not shown) [28-En2, 1-(5-(4-(trifluoromethyl)phenyl)-5,6,6a,7,9,10-hexahydro-8H-pyrazino[1,2-a]pyrido[3,2-e]pyrazin-8-yl)prop-2-en-1-one]	< 1000	
